Where two headings read alike, the source gives them in different places.
How the values were obtained:
[1] = test system: precancerous lesion in K14-Fyn Y528F mice; assay: Topical treatment of precancerous lesion in K14-Fyn Y528F mice; type: in vivo; conditions: 1 mM in DMSO topically once a day Monday-Friday for 20 times (FIG. 10)
From the text: FIG. 10. Clearance of precancerous lesion and a cSCC by PP2 in three weeks. One millimolar PP2 in DMSO was topically applied once a day Monday-Friday for 20 times to a small precancerous lesion on the ear and to a cSCC on the neck. […] Small black rectangle=2 mm
One millimolar PP2 in DMSO was topically applied once a day Monday-Friday for 20 times to a small precancerous lesion on the ear and to a cSCC on the neck.

[2] = test system: cSCCs in K14-Fyn Y528F mice; conditions: for outcome of treated cSCC in one mouse receiving both compounds: PP2 to a large facial cSCC, PP3 to a back cSCC of the same mouse, end of the 6 weeks (FIG. 7); for treated tumors demonstrating significant tumor regression as defined by a 75% or greater decrease in tumor area: approximately 25 μL of 1 mM topically, daily Monday thru Friday for 30 days, evaluated for 6 weeks, PP2 N=11 tumors, PP3 N=9 tumors, p<0.01; for regression of cSCCs: daily Monday-Friday for three weeks, final measurement one week after end of treatment
[3] = test system: UV-induced tumor formation in transgenic models overexpressing v-Ras^Ha; conditions: cited from earlier work
EGFR = EGFR (Homo sapiens, UniProt P00533); conditions: cited from earlier work
[4] = radio-labeled, applied in a white petrolatum ointment to rat skin; cited from earlier work
[5] = 1% topical ethanol or DMSO gel or ointment daily Monday-Friday, 15 mice with solitary cSCCs, example written in present tense

EGFR, sequence (P00533 25-1210, species assumed): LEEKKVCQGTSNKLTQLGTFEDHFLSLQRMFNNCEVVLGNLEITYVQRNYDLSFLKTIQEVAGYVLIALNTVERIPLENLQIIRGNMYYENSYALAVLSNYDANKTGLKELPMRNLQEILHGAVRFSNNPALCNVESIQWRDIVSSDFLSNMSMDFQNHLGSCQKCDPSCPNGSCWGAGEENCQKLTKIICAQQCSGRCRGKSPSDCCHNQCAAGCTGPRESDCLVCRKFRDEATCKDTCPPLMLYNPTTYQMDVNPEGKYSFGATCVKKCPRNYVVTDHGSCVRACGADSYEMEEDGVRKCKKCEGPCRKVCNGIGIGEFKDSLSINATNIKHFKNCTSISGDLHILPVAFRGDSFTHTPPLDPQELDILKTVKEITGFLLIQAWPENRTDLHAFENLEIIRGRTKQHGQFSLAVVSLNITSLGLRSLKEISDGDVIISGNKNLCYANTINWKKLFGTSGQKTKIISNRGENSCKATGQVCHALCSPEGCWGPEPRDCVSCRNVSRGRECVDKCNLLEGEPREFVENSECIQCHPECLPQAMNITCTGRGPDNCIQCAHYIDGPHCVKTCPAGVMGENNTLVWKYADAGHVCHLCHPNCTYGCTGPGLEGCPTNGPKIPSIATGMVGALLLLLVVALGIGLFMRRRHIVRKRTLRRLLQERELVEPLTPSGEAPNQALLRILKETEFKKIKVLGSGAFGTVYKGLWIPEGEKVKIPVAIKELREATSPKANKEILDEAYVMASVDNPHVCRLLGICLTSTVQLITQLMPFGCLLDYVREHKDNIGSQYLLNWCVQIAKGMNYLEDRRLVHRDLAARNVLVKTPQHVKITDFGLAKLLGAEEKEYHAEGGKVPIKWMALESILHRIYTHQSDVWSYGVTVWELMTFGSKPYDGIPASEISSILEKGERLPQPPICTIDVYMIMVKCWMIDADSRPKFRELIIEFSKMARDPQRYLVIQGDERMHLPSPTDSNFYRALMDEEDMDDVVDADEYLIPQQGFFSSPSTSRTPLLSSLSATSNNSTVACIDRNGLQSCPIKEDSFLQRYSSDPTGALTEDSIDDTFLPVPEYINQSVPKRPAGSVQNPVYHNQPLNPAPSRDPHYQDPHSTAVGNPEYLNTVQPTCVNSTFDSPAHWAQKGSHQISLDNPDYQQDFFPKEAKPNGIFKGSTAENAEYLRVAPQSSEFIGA

Q: For “4-amino-5-(4-chlorophenyl)-7-(t-butyl)pyrazolo[3,4-d]-pyrimidine [PP2]”, which “clearance of small precancerous lesion on the ear” value [1] is on record?
A: Clearance of both lesions was noted by three weeks

Q: And the “clearance of cSCC on the neck” value ([2]; 1 mM in DMSO topically once a day Monday-Friday for 20 times (FIG. 10))?
A: Clearance of both lesions was noted by three weeks

Q: And the “clearance of cSCC covering the dorsum of the ear” value ([2]; 1 mM in DMSO topically once a day Monday-Friday for 30 times, six weeks after beginning treatment (FIG. 9))?
A: Prominent clearance of the cSCC

Q: And the “time by which clearance of a large facial cSCC was noted” value ([2]; 1 mM in DMSO topically once a day Monday-Saturday for 20 times (FIG. 8))?
A: ≤ 21 days

Q: And the “outcome of treated cSCC in one mouse receiving both compounds” value [2]?
A: regressed

Q: And the “treated tumors demonstrating significant tumor regression as defined by a 75% or greater decrease in tumor area” value [2]?
A: All

Q: What about the “histology of treated area: local skin reactions” value ([2]; ear cSCC treated 30 times with 1 mM in DMSO, compared with what might be seen with 5-FU) of the same molecule?
A: Notably absent are prominent inflammation, ulceration, or skin peeling

Q: What about the “tumor regression (FIG. 11)” value ([2]; topical, five weeks) of the same molecule?
A: induces tumor regression in five weeks

Q: Which “UV-induced tumor formation after topical application” value [3] does the source give for `COc1cc2ncnc(Nc3cccc(Cl)c3)c2cc1OC` [AG1478] here?
A: inhibit UV-induced tumor formation

Q: With `Cn1c(=O)n(-c2ccc(C(C)(C)C#N)cc2)c2c3cc(-c4cnc5ccccc5c4)ccc3ncc21` [BEZ235] as the molecule, how does the tumors completely regressed ([2]; 20 mM topical ointment daily Monday-Friday, 15 mice with solitary cSCCs, by five weeks) read?
A: 80%

Q: And the “regression of cSCCs in the treatment group compared to controls” value (“regression of cSCCs … compared to controls” for short) ([2]; 20 mM topical ointment daily Monday-Friday, control ointment alone (FIG. 14))?
A: marked regression

Q: With `CC(C)Cn1c2ccc(Nc3ncccn3)cc2c2c3c(c4c(c21)CCc1nn(C)cc1-4)C(=O)NC3` [CEP-11981, 13-isobutyl-4-methyl-10-(pyrimidin-2-ylamino)-4,7,8,13-tetrahydro-1H-indazolo[5,4-a]pyrrolo[3,4-c]carbazol-6(2H)-one] as the molecule, how does the “regression of cSCCs … compared to controls” value [2, 5] read?
A: marked regression

Q: With `Nc1ncnc2c1cnn2-c1ccccc1` [PP3, 4-Amino-7-Phenylpyrazolpyrimidine] as the molecule, how does the IC50 (EGFR) read?
A: 2700 nM

Q: What about the “outcome of treated cSCC in one mouse receiving both compounds” value [2] of the same molecule?
A: unchanged

Q: What about the “treated tumors demonstrating significant tumor regression as defined by a 75% or greater decrease in tumor area” value [2] of the same molecule?
A: None

Q: Which epidermal penetration [4] does the source give for `N#C/C(=C\c1cc(Cl)cc(Cl)c1)c1cccnc1` [RG 14620] here?
A: demonstrated epidermal penetration

Q: For `CN1CCN(CCOc2cc(OC3CCOCC3)c3c(Nc4c(Cl)ccc5c4OCO5)ncnc3c2)CC1` [Saracatinib, N-(5-chlorobenzo[d][1,3]dioxol-4-yl)-7-(2-(4-methylpiperazin-1-yl)ethoxy)-5-(tetrahydro-2H-pyran-4-yloxy)quinazolin-4-amine], which “regression of cSCCs … compared to controls” value [2, 5] is on record?
A: marked regression

Q: With `Cn1cnc2c(F)c(Nc3ccc(Br)cc3Cl)c(C(=O)NOCCO)cc21` [Selumetinib, 6-(4-bromo-2-chlorophenylamino)-7-fluoro-N-(2-hydroxyethoxy)-3-methyl-3H-benzo[d]imidazole-5-carboxamide] as the molecule, how does the “regression of cSCCs … compared to controls” value [2, 5] read?
A: marked regression

Q: For `C[C@@H]1CCN(C(=O)CC#N)C[C@@H]1N(C)c1ncnc2[nH]ccc12` [Tofacitinib, 3-[(3R,4R)-4-methyl-3-[methyl(7H-pyrrolo[2,3-d]pyrimidin-4-yl)amino]piperidin-1-yl]-3-oxopropanenitrile], which “regression of cSCCs … compared to controls” value [2, 5] is on record?
A: marked regression

Q: With `CS/C(N)=C(C#N)/C(C#N)=C(\N)SC` [U0124, 2,3-Bis-[1-amino-1-methylsulfanyl-meth-(Z)-ylidene]-succinonitrile] as the molecule, how does the “size of treated cSCCs” value ([2]; 2 mice with 2 cSCCs of 1 mm^2, treated analogously to U0126) read?
A: stayed the same size

Q: And the “regression of cSCCs” value ([2]; topical)?
A: 0%

Q: Which “regression of cSCCs” value ([2]; topical) does the source give for `N#CC(=C(N)Sc1ccccc1N)C(C#N)=C(N)Sc1ccccc1N` [U0126, 1,4-diamino-2,3-dicyano-1,4-bis(2-aminophenylthio)butadiene] here?
A: 75+/−37%

Q: With `Cc1nc(Nc2ncc(C(=O)Nc3c(C)cccc3Cl)s2)cc(N2CCN(CCO)CC2)n1.O` [dasatinib, N-(2-chloro-6-methylphenyl)-2-[[6-[4-(2-hydroxyethyl)-1-piperazinyl]-2-methyl-4-pyrimidinyl]amino]-5-thiazolecarboxamide, monohydrate] as the molecule, how does the “time by which clearance of a back cSCC was noted” value ([2]; 1% ointment topically daily Monday-Friday for 25 applications (FIG. 13)) read?
A: ≤ 5 weeks

Q: And the “original tumor area remaining” value ([2]; topical 1% ointment daily Monday-Friday, 11 mice with solitary cSCCs, after 5 weeks)?
A: 4%
